Results as given in patent publication US7772241B2, “Variolin derivatives and their use as antitumor agents” (Pharma Mar S.A., priority 2001, dated 2010).
Read-outs that look alike come from different tables or passages of the source.

Experiments:
[1] = test system: K-562; assay: Inhibition of cells growth by colorimetric (SRB) assay, K-562; settings: for GI50 / CC50: Homo sapiens, K562, 48 h; for GI50: read-out: K-562 GI50, SRB assay, 48 hours exposure; for CC50: read-out: K-562 LC50, SRB assay, 48 hours exposure; for K-562 TGI: SRB assay, 48 hours exposure
Procedure, shortened: (§1)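 Read-out is sulforhodamine B protein stain (OD 490 nm) after cold TCA fixation, following 48 h continuous exposure to samples spanning 10 to 10^−8 μg/ml.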

[2] = test system: A-549; assay: Inhibition of cells growth by colorimetric (SRB) assay, A-549
Procedure, shortened: as §1

[3] = test system: SK-MEL-28; assay: Inhibition of cells growth by colorimetric (SRB) assay, SK-MEL-28; settings: for GI50 / CC50: Homo sapiens, SK-MEL-28, 48 h; for GI50: read-out: MEL-28 GI50, SRB assay, 48 hours exposure; for CC50: read-out: MEL-28 LC50, SRB assay, 48 hours exposure; for MEL-28 TGI: SRB assay, 48 hours exposure
Procedure, shortened: as §1

[4] = test system: HT-29; assay: Inhibition of cells growth by colorimetric (SRB) assay, HT-29
Procedure, shortened: as §1

[5] = test system: LoVo; assay: Inhibition of cells growth by colorimetric (SRB) assay, LoVo; settings: for GI50 / CC50: Homo sapiens, LoVo, 48 h; for GI50: read-out: LOVO GI50, SRB assay, 48 hours exposure; for CC50: read-out: LOVO LC50, SRB assay, 48 hours exposure; for LOVO TGI: SRB assay, 48 hours exposure
Procedure, shortened: as §1

[6] = test system: LoVo-Dox; assay: Inhibition of cells growth by colorimetric (SRB) assay, LoVo-Dox; settings: for GI50 / CC50: Homo sapiens, 48 h; for GI50: read-out: LOVO-DOX GI50, SRB assay, 48 hours exposure; for CC50: read-out: LOVO-DOX LC50, SRB assay, 48 hours exposure; for LOVO-DOX TGI: SRB assay, 48 hours exposure
Procedure, shortened: as §1

[7] = test system: DU-145; assay: Inhibition of cells growth by colorimetric (SRB) assay, DU-145; settings: for GI50 / CC50: Homo sapiens, DU-145, 48 h; for GI50: read-out: DU-145 GI50, SRB assay, 48 hours exposure; for CC50: read-out: DU-145 LC50, SRB assay, 48 hours exposure; for DU-145 TGI: SRB assay, 48 hours exposure
Procedure, shortened: as §1

[8] = test system: LNCaP; assay: Inhibition of cells growth by colorimetric (SRB) assay, LNCaP; settings: for GI50 / CC50: Homo sapiens, LNCaP, 48 h; for GI50: read-out: LN-caP GI50, SRB assay, 48 hours exposure; for CC50: read-out: LN-caP LC50, SRB assay, 48 hours exposure; for LN-caP TGI: SRB assay, 48 hours exposure
Procedure, shortened: as §1

[9] = test system: SK-BR-3; assay: Inhibition of cells growth by colorimetric (SRB) assay, SK-BR-3; settings: for GI50 / CC50: Homo sapiens, SK-BR-3, 48 h; for GI50: read-out: SK-BR-3 GI50, SRB assay, 48 hours exposure; for CC50: read-out: SK-BR-3 LC50, SRB assay, 48 hours exposure; for SK-BR-3 TGI: SRB assay, 48 hours exposure
Procedure, shortened: as §1

[10] = test system: IGROV-1; assay: Inhibition of cells growth by colorimetric (SRB) assay, IGROV-1; settings: for GI50 / CC50: Homo sapiens, IGROV-1, 48 h; for GI50: read-out: IGROV GI50, SRB assay, 48 hours exposure; for CC50: read-out: IGROV LC50, SRB assay, 48 hours exposure; for IGROV TGI: SRB assay, 48 hours exposure
Procedure, shortened: as §1

[11] = test system: IGROV-ET; assay: Inhibition of cells growth by colorimetric (SRB) assay, IGROV-ET; settings: for GI50 / CC50: Homo sapiens, 48 h; for GI50: read-out: IGROV-ET GI50, SRB assay, 48 hours exposure; for CC50: read-out: IGROV-ET LC50, SRB assay, 48 hours exposure; for IGROV-ET TGI: SRB assay, 48 hours exposure
Procedure, shortened: as §1

[12] = test system: HeLa; assay: Inhibition of cells growth by colorimetric (SRB) assay, HeLa; settings: for GI50: Homo sapiens, HeLa, 48 h, read-out: HELA GI50, SRB assay, 48 hours exposure; for HELA TGI: SRB assay, 48 hours exposure
Excerpt: (§2) The finality of these assays is to interrupt the growth of a “in vitro” tumor cell culture by means a continued exhibition of the cells to the sample to be testing.
(§3) This form of the assay employs 96 well cell culture microplates of 9 mm diameter (Faircloth, 1988; Mosmann, 1983). Most of the cell lines are obtained from American Type Culture Collection (ATCC) derived from different human cancer types.
(§4) Cells are maintained in RPMI 1640 10% FBS, supplemented with 0.1 g/l penicillin and 0.1 g/l streptomycin sulphate and then incubated at 37° C., 5% CO2 and 98% humidity. For the experiments, cells were harvested from subconfluent cultures using trypsin and resuspended in fresh medium before plating.
(§5) Cells are seeded in 96 well microtiter plates, at 5×10^3 cells per well in aliquots of 195 μl medium, and they are allowed to attach to the plate surface by growing in drug free medium for 18 hours. Afterward, samples are added in aliquots of 5 μl in a ranging from 10 to 10^−8 μg/ml, dissolved in DMSO/EtOH/PBS (0.5:0.5:99). After 48 hours exposure, the antitumor effect are measured by the SRB methodology: cells are fixed by adding 50 μl of cold 50% (wt/vol) trichloroacetic acid (TCA) and incubating for 60 minutes at 4° C. Plates are washed with deionized water and dried. One hundred μl of SRB solution (0.4% wt/vol in 1% acetic acid) is added to each microtiter well and incubated for 10 minutes at room temperature. Unbound SRB is removed by washing with 1% acetic acid. Plates are air dried and bound stain is solubilized with Tris buffer. Optical densities are read on a automated spectrophotometric plate reader at a single wavelength of 490 nm.
(§6) The values for mean +/−SD of data from triplicate wells are calculated. Some parameters for cellular responses can be calculated: GI=growth inhibition, TGI=total growth inhibition (cytostatic effect) and LC=cell killing (cytotoxic effect).

[13] = test system: HeLa-APL; assay: Inhibition of cells growth by colorimetric (SRB) assay, HeLa-APL; settings: for GI50 / CC50: Homo sapiens, 48 h; for GI50: read-out: HELA-APL GI50, SRB assay, 48 hours exposure; for CC50: read-out: HELA-APL LC50, SRB assay, 48 hours exposure; for HELA-APL TGI: SRB assay, 48 hours exposure
Excerpt: as §2, §3, §4, §5, §6

[14] = test system: PANC-1; assay: Inhibition of cells growth by colorimetric (SRB) assay, PANC-1; settings: for GI50 / CC50: Homo sapiens, PANC-1, 48 h; for GI50: read-out: PANC-1 GI50, SRB assay, 48 hours exposure; for CC50: read-out: PANC-1 LC50, SRB assay, 48 hours exposure; for PANC-1 TGI: SRB assay, 48 hours exposure
Procedure, shortened: as §1

[15] = Homo sapiens, A549, 48 h, read-out: A-549 GI50, SRB assay, 48 hours exposure
[16] = Homo sapiens, A549, 48 h, read-out: A-549 LC50, SRB assay, 48 hours exposure
[17] = Homo sapiens, HT-29, 48 h, read-out: HT-29 GI50, SRB assay, 48 hours exposure
[18] = Homo sapiens, HT-29, 48 h, read-out: HT-29 LC50, SRB assay, 48 hours exposure

CSc1nccc(-c2c3cc4ccccc4nc3n3c(N)nccc23)n1 [Compound 18a]
GI50 [1]: 4.72 µM | CC50 [1]: ≥ 27.9 µM | K-562 TGI [1]: 1.66E−05 | GI50 [2, 15]: 7.31 µM | CC50 [2, 16]: ≥ 27.9 µM | A-549 TGI ([2]; SRB assay, 48 hours exposure): 1.66E−05 | GI50 [3]: 4.97 µM | CC50 [3]: ≥ 27.9 µM | MEL-28 TGI [3]: 1.20E−05 | GI50 [4, 17]: 4.41 µM | CC50 [4, 18]: ≥ 27.9 µM | HT-29 TGI ([4]; SRB assay, 48 hours exposure): 1.67E−05 | GI50 [5]: 5.11 µM | CC50 [5]: 17 µM | LOVO TGI [5]: 9.32E−06 | GI50 [6]: 3.1 µM | CC50 [6]: ≥ 27.9 µM | LOVO-DOX TGI [6]: 9.74E−06 | GI50 [7]: 4.27 µM | CC50 [7]: 23.3 µM | DU-145 TGI [7]: 9.99E−06 | GI50 [8]: 3.49 µM | CC50 [8]: 15.3 µM | LN-caP TGI [8]: 7.31E−06 | GI50 [9]: 1.34 µM | CC50 [9]: ≥ 27.9 µM | SK-BR-3 TGI [9]: 4.94E−06 | GI50 [10]: 5.47 µM | CC50 [10]: ≥ 27.9 µM | IGROV TGI [10]: 1.33E−05 | GI50 [11]: 7.06 µM | CC50 [11]: ≥ 27.9 µM | IGROV-ET TGI [11]: 1.53E−05 | GI50 [12]: 0.0449 µM | HELA TGI [12]: 3.68E−06 | GI50 [13]: 0.0569 µM | CC50 [13]: 6.56 µM | HELA-APL TGI [13]: 8.31E−07 | GI50 [14]: 6.53 µM | CC50 [14]: ≥ 27.9 µM | PANC-1 TGI [14]: 1.46E−05

CSc1nccc(-c2c3ccc(C)nc3n3c(N)nccc23)n1 [Compound 43]
GI50 [1]: 5.27 µM | CC50 [1]: 21.2 µM | K-562 TGI [1]: 1.06E−05 | GI50 [2, 15]: 0.937 µM | CC50 [2, 16]: 31.1 µM | GI50 ([2]; Homo sapiens, A549, 48 h, read-out: GI50 A-549, SRB assay, 48 hours exposure): 2.17 µM | CC50 ([2]; read-out: A-549 LC50, SRB assay, 48 hours exposure): ≥ 17.3 µM | GI50 [3]: 0.85 µM | CC50 [3]: 15.3 µM | MEL-28 TGI [3]: 3.72E−06 | GI50 [4, 17]: 0.932 µM | CC50 [4, 18]: 31.1 µM | GI50 ([4]; read-out: HT-29 GI50, SRB assay, 48 hours exposure): 1.13 µM | CC50 ([4]; read-out: HT-29 LC50, SRB assay, 48 hours exposure): ≥ 31 µM | GI50 [5]: 0.717 µM | CC50 [5]: ≥ 31 µM | LOVO TGI [5]: 2.37E−06 | GI50 [6]: 1.22 µM | CC50 [6]: ≥ 31 µM | LOVO-DOX TGI [6]: 5.24E−06 | GI50 [7]: 1.68 µM | CC50 [7]: 24.5 µM | DU-145 TGI [7]: 6.79E−06 | GI50 [8]: 1.36 µM | CC50 [8]: 12.5 µM | LN-caP TGI [8]: 3.94E−06 | GI50 [9]: 1.24 µM | CC50 [9]: ≥ 31 µM | SK-BR-3 TGI [9]: 5.27E−06 | GI50 [10]: 6.64 µM | CC50 [10]: ≥ 31 µM | IGROV TGI [10]: 1.60E−05 | GI50 [11]: 3.69 µM | CC50 [11]: ≥ 31 µM | IGROV-ET TGI [11]: 1.87E−05 | GI50 [12]: 0.0233 µM | HELA TGI [12]: 2.03E−07 | GI50 [13]: 0.0182 µM | CC50 [13]: 7.88 µM | HELA-APL TGI [13]: 1.75E−07 | GI50 [14]: 5.71 µM | CC50 [14]: ≥ 31 µM | PANC-1 TGI [14]: 1.65E−05
